# Test results taken from patent US8865200B2, “Sustained release compositions containing progesterone receptor modulators” (Laboratoire HRA Pharma, priority 2004, dated 2014).
# Legend:
# [1] = In vitro release rate from vaginal rings; type: physicochemical; settings: for in vitro release rate: vaginal ring, 20% load W/W, redistilled water, 37 C
# Method: Thread was used to suspend the rings prepared in example 1 individually in 500 mL wide mouth polyethylene bottles with screw caps. 400 mL of redistilled water was added, and the bottles were placed in a shaking water bath at 37 C. The bath was set to make 100 one-inch strokes per minute. The bathing solution was changed every 24 hours. The CDB-2914 concentration in the aqueous medium was measured via HPLC to determine the release rate of CDB-2914.
# Using the same in vitro release rate analysis, vaginal rings were prepared containing either CDB-2914 (20% load, W/W) or mifepristone (20% load, W/W) with several different diameters of silicone tubes, and with tubes containing 18% ethylene vinyl acetate (EVA) as a rate-limiting layer. The rings were prepared by mixing CDB-2914 in a silicone elastomer matrix that was filled into a silicone tube. Upon polymerization, tube was cut into a 16 cm length and the two ends were joined with medical adhesive to form a ring. This vaginal ring has an inner layer of silicone rubber and active agent, and an outer, rate limiting layer. With a silicone tube containing 18% EVA, CDB-2914 was released at the rate of about 96 μg/ring/day, whereas the release of mifepristone was negligible. Using silicone tube C, CDB-2914 was diffused out at more than a 3-fold higher rate than mifepristone (160 μg/ring/day vs. 48 μg/ring/day).
# [2] = Pharmacokinetic study of vaginal rings in women (serum levels by radioimmunoassay and LC/MS); type: in vivo
# Method: A pharmacokinetic study was conducted abroad in two clinics. Radioimmunoassay and liquid chromatography/mass spectroscopic method (LC/MS) were used to measure the serum levels of CDB-2914 and its immunoreactive metabolites. […] After insertion of the ring into the subjects, CDB-2914 was absorbed into the blood stream, increased continuously and reached a plateau at approximately 7 days post-insertion (2-3 ng/mL). Serum levels decreased upon removal of ring at Day 29 (See FIGS. 5A and 5B).
# Water solubility = type: physicochemical
# [3] = silicone tube containing 18% EVA as rate-limiting layer
Structure (SMILES),release rate relative to mifepristone ([1]; silicone tube C) [fold],in vitro release rate ([1]; silicone tube C) [μg/ring/day],"in vitro release rate [1, 3]",serum levels upon removal of ring ([2]; ring removed at Day 29),bursting release immediately after insertion of the rings ([2]; vaginal ring),serum concentration compared to Nestorone (NES) ([2]; vaginal ring),time to reach serum plateau ([2]; vaginal ring),"serum level at plateau ([2]; vaginal ring, plateau at approximately 7 days post-insertion) [ng/mL]",water solubility (Water solubility)
"CC(=O)O[C@]1(C(C)=O)CC[C@H]2[C@@H]3CCC4=CC(=O)CCC4=C3[C@@H](c3ccc(N(C)C)cc3)C[C@@]21C [CDB-2914, 17α-acetoxy-11β-(4-N,N-dimethylaminophenyl)-19-norpregna-4,9-diene-3,20-dione]",> 3,160,about 96 μg/ring/day,decreased,No bursting release,higher than that of Nestorone,approximately 7 days post-insertion,2 to 3,not water soluble
"CC#C[C@]1(O)CC[C@H]2[C@@H]3CCC4=CC(=O)CCC4=C3[C@@H](c3ccc(N(C)C)cc3)C[C@@]21C [mifepristone, reference compound]",–,48,negligible,–,–,–,–,–,–
